According to ChEMBL document CHEMBL1147103, “First identification of Pseudomonas aeruginosa isolates producing a KPC-type carbapenem-hydrolyzing beta-lactamase” (2007):
Values after ≈ are worked out from the molar mass of the structure shown.

Tests used:
Assay type in all cases: functional
Pseudomonas aeruginosa [1] = experiment: Antimicrobial susceptibility of carbapenem-resistant Pseudomonas aeruginosa PA2404 isolate expressing carbapenemase KPC2
Pseudomonas aeruginosa [2] = experiment: Antimicrobial susceptibility of carbapenem-resistant Pseudomonas aeruginosa PA4012 isolate expressing carbapenemase KPC2
Pseudomonas aeruginosa [3] = experiment: Antimicrobial susceptibility of carbapenem-resistant Pseudomonas aeruginosa PA4036 isolate expressing carbapenemase KPC2
Citrobacter freundii = experiment: Antimicrobial susceptibility of Citrobacter freundii CF6010 isolate expressing carbapenemase KPC2

| Compound | MIC (Pseudomonas aeruginosa [1]) [µg/mL] | MIC (Pseudomonas aeruginosa [2]) [µg/mL] | MIC (Pseudomonas aeruginosa [3]) [µg/mL] | MIC (Citrobacter freundii) [µg/mL] |
| --- | --- | --- | --- | --- |
| NCC[C@H](O)C(=O)N[C@@H]1C[C@H](N)[C@@H](O[C@H]2O[C@H](CN)[C@@H](O)[C@H](O)[C@H]2O)[C@H](O)[C@H]1O[C@H]1O[C@H](CO)[C@@H](O)[C@H](N)[C@H]1O [AMIKACIN] | 16 (≈ 27.3 µM) | 16 (≈ 27.3 µM) | 16 (≈ 27.3 µM) | 2 (≈ 3.42 µM) |
| CC(C)(O/N=C(\C(=O)N[C@@H]1C(=O)N2C(C(=O)[O-])=C(C[n+]3ccccc3)CS[C@H]12)c1csc(N)n1)C(=O)O [CEFTAZIDIME] | 256 (≈ 468 µM) | 256 (≈ 468 µM) | 256 (≈ 468 µM) | 32 (≈ 58.5 µM) |
| CO/N=C(\C(=O)N[C@@H]1C(=O)N2C(C(=O)O)=C(CSc3nc(=O)c(O)nn3C)CS[C@H]12)c1csc(N)n1 [CEFTRIAXONE] | > 256 | > 256 | > 256 | 256 (≈ 462 µM) |
| C[C@H]1[C@H](NC(=O)/C(=N\OC(C)(C)C(=O)O)c2csc(N)n2)C(=O)N1S(=O)(=O)O [AZTREONAM] | > 256 | > 256 | > 256 | 128 (≈ 294 µM) |
| GENTAMICIN | > 128 | > 128 | > 128 | > 128 |
| CC(O)[C@H]1C(=O)N2C(C(=O)O)=C(SCCNC=N)C[C@H]12 (single isomer, unassigned) [IMIPENEM ANHYDROUS] | 256 (≈ 855 µM) | > 256 | > 256 | 8 (≈ 26.7 µM) |
| CN(C)c1cc(NC(=O)CNC(C)(C)C)c(O)c2c1C[C@H]1C[C@H]3[C@H](N(C)C)C(O)=C(C(N)=O)C(=O)[C@@]3(O)C(O)=C1C2=O [TIGECYCLINE] | 16 (≈ 27.3 µM) | 16 (≈ 27.3 µM) | 16 (≈ 27.3 µM) | 0.5 (≈ 0.854 µM) |
| C[C@@H](O)[C@H]1C(=O)N2C(C(=O)O)=C(S[C@@H]3CN[C@H](C(=O)Nc4cccc(C(=O)O)c4)C3)[C@H](C)[C@H]12 [ERTAPENEM] | > 256 | 256 (≈ 538 µM) | > 256 | 16 (≈ 33.6 µM) |
| CC1(C)S[C@@H]2[C@H](NC(=O)[C@H](N)c3ccccc3)C(=O)N2[C@H]1C(=O)O [AMPICILLIN] | > 256 | > 256 | > 256 | > 256 |
| CO/N=C(\C(=O)N[C@@H]1C(=O)N2C(C(=O)[O-])=C(C[N+]3(C)CCCC3)CS[C@H]12)c1csc(N)n1 [CEFEPIME] | > 256 | > 256 | > 256 | 8 (≈ 16.6 µM) |
| CCN1CCN(C(=O)N[C@@H](C(=O)N[C@@H]2C(=O)N3[C@@H]2SC(C)(C)[C@@H]3C(=O)O)c2ccccc2)C(=O)C1=O [PIPERACILLIN] | > 256 | > 256 | > 256 | > 256 |
| COLISTIN | 1 | 2 | 1 | 0.5 |
| C[C@@H](O)[C@H]1C(=O)N2C(C(=O)O)=C(S[C@@H]3CN[C@H](C(=O)N(C)C)C3)[C@H](C)[C@H]12 [MEROPENEM] | > 256 | > 256 | > 256 | 8 (≈ 20.9 µM) |
| CO/N=C(\C(=O)N[C@@H]1C(=O)N2C(C(=O)O)=C(COC(C)=O)CS[C@H]12)c1csc(N)n1 (stereo in doubt) [CEFOTAXIME] | > 256 | > 256 | > 256 | 32 (≈ 70.3 µM) |
| NC[C@H]1O[C@H](O[C@H]2[C@H](O)[C@@H](O[C@H]3O[C@H](CO)[C@@H](O)[C@H](N)[C@H]3O)[C@H](N)C[C@@H]2N)[C@H](N)C[C@@H]1O [TOBRAMYCIN] | > 128 | > 128 | > 128 | 64 (≈ 137 µM) |
